Our source for the logP values is the OPERA property sets (Mansouri et al. 2018).

Where a SMILES comes first, the peptide text is derived from it.

In the case of `OCCCCCCCCNc1[nH]cnc2ncnc1-2`, the logP – broadly, a log measure of how a compound divides between an organic and an aqueous phase – turned out to be 2.23. In the case of `COc1ccc(C2Cc3ccccc3N(CCN(C)C)C(=O)C2C)cc1` (stereo not given) it was 4.5; in that of `COc1cc(SC)ccc1-c1cn2cccnc2n1`, 2.44. The value for `N#Cc1[nH]cc(-c2ccc(Cl)cc2)c1N1CCOCC1` was 3.5.

Compound `CC(C)C(NC(=O)C(N)Cc1ccc(O)cc1)C(=O)NC(Cc1ccccc1)C(=O)O` (stereo not given) returned a log partition coefficient (logP) of -1.37.

`CC1OC(OC2C(C)OC(OC3C(C)OC(OC4CCC5(C)C(CCC6C5CCC5(C)C(C7=CC(=O)OC7)C(OC=O)CC65O)C4)CC3OC=O)CC2OC=O)CC(OC=O)C1OC=O` (stereo not given) yielded a logP of 3.16. In the case of `COc1ccc(C2Cc3cc(C(F)(F)F)ccc3N(CCN(C)C)C(=O)C2OC(C)=O)cc1` (stereo not given) it was 4.8; in that of `S=c1[nH]nc(Cn2ccc3ccccc32)n1-c1ccccc1`, 2.68. Compound `Cc1ccc(C)c(OCC2CN=C(N)O2)c1` (stereo not given) registered a lipophilicity (logP) of 2.29. `COc1c([N+](=O)[O-])cc(C(=O)O)cc1[N+](=O)[O-]` gave a logP of 1.73.

Consider `Nc1nnnn1-c1c(Cl)cccc1Cl`, for which the logP was found to be 1.56. This logP and that of the compound before are within 0.2 log units of each other. The value for `CN(c1nc2ccccc2s1)C1CCN(CC(O)COc2ccc(F)cc2)CC1` (stereo not given) was 4.61; that for `Cc1cccc(C)c1CCn1ccnc1` was 2.73.

Take `CC(C)C(N)C(=O)NCC(=O)NC(Cc1ccccc1)C(=O)NC(C(=O)NC(Cc1ccccc1)C(=O)O)C(C)C` (stereo not given) (H-VGFVF-OH; configuration not given here): the log partition coefficient (logP) is -0.5. In the case of `O=c1nc(N=CN2CCCCC2)ccn1C1CC(O)C(CO)O1` (stereo not given) it was -0.51; in that of `O=C(O)C(Cc1ccccc1)NC(=O)C1CCCN1` (stereo not drawn) (H-Pro-Phe-OH; configuration not given here), -2.07. In the case of `CCCN(CCC)C1CCc2c(O)cccc2C1C` (stereo not given), the logP stood at 4.06. The value for `NC(=O)c1cc(OCCNCC(O)CON=C(C2CC2)C2CC2)ccc1O` (stereo not given) was 1.69; that for `CN1CCN2c3ccccc3Cc3ccccc3C2C1` (stereo not given) was 4.24. In turn, `C#CCNc1nc(CCC)nc(N2CCOCC2)n1` gave a logP of 2.3.

For `CCCCNc1ncnc2nc[nH]c12`, the logP was 2. The value for `CC(C)CC(NC(=O)C(NC(=O)C(N)C(C)O)C(C)C)C(=O)O` (stereo not drawn) (H-Thr-Val-Leu-OH; configuration not given here) was -1.97; that for `CN(C)C(C)(C)CO` was 0.29. For the compound `CCC(=O)Nc1ccc(OCC(O)CNC(C)C)cc1` (stereo not given), the log partition coefficient (logP) was determined as 1.02.

`OC(CNCCCc1ccccc1)CON=C(C1CC1)C1CC1` (stereo not given) returned a logP of 2.56.

For the compound `CCCCCC(O)C=CC1C(O)CC(O)C1CC=CCCCC(=O)OCc1ccccc1` (stereo not given), the lipophilicity (logP) worked out at 4.11. The value for `NC(=O)C(CCCN1CC2CCC(CC2)C1)(c1ccccc1)c1ccccn1` (stereo not given) was 2.88; that for `CCOCCCNc1ncnc2c1ncn2C1OC(CO)C(O)C1O` (stereo not given) was 0.22. The value for `Nc1nc(N)c2c(N3CCCCC3)cccc2n1` was 2.66; that for `COc1ccc2c(c1)CCN(C)C2` was 2.32. `CCOC(=O)C1=C(C)NC(C)=C(C(=O)OC)C1c1ccccc1` (stereo not given) registered a logP of 4.14. In the case of `O=C1c2ccccc2-c2nnc(-c3ccccc3O)cc21` it was 3.15; in that of `COc1cccc(-n2nnnc2N)c1`, 0.96. The value for `CC1(C)CC(=O)C=C(N2CCCCC2)C1` was 2.83; that for `C=C1CCCC2(C)CCC(C(C)(C)O)CC12` (stereo not given) was 4.64. In turn, `CC(O)CN(C)C` (stereo not given) came in with a logP of 0.2.

For `CN(C(=O)CO)c1c(I)c(C(=O)NCC(O)CO)c(I)c(C(=O)NCC(O)CO)c1I` (stereo not given), the log partition coefficient (logP) was -2.79. `CCCCCOc1cccc(NC(=O)OCCN2CCCCC2)c1` showed a logP of 5.5. In the case of `Nc1ccno1` it was -0.47. In the case of `Cc1cc2c(ccc3c(C)cc(=O)oc32)o1` it was 3.08; in that of `NC1=NCC(CN2CC=CCC2)O1` (stereo not given), 0.19; in that of `CC(C)NCC(O)CN1C(=O)COc2ccccc21` (stereo not given), 1.45. In turn, `NC(Cc1c[nH]c2ccccc12)C(=O)N1CCCC1C(=O)O` (stereo not given) came in with a logP of -0.98. In the case of `COc1ccc(Nc2nc(O)nc(NC(C)C)n2)cc1OC` it was 3.49; in that of `Nc1nnnn1-c1cccc(F)c1`, 0.91. The value for `CCC(CC)(C(=O)OC)S(=O)(=O)c1ccc([N+](=O)[O-])cc1` was 2.24. In the case of `CCCCOCCCNc1ncnc2c1ncn2C1OC(CO)C(O)C1O` (stereo not given) it was 1.3; in that of `COc1ccc(CCNCC(O)CON=C(C2CC2)C2CC2)cc1OC` (stereo not given), 2.42.

In turn, `Nc1nnnn1-c1ccc(F)cc1` yielded a logP of 0.75. In the case of `CC(CO)CNc1[nH]cnc2ncnc1-2` (stereo not given) it was 0.61.

`COCc1c(O)c(=O)cc(C)n1C` gave a logP of -0.42.

In turn, `CON=C(C(=O)NC1C(=O)N2C(C(C)OC(=O)OC(C)C)=CCSC12)c1csc(N)n1` (stereo not given) yielded a logP of 1.37. The value for `CCCc1nc(NCN2CCCC2=O)nc(N2CCOCC2)n1` was 1.62; that for `CC(C)CCNc1ncnc2c1ncn2C1OC(CO)C(O)C1O` (stereo not given) was 1.6; that for `CC(C)(C)NCC(O)COc1cccc2c1CCN(C=O)C2` (stereo not given) was 1.3. Compound `O=c1[nH]c2cc(Cl)c(Cl)c([N+](=O)[O-])c2[nH]c1=O` had a logP of 0.21.

In the case of `Clc1ccc(/C=N/OCCc2nc(-c3ccccc3)n[nH]2)cc1`, the logP was 2.83. As to `CC(=O)N(c1nc(=O)n(C(C)C)c(=O)n1C)C(C)C`, the log partition coefficient (logP) came out at 0.18. `CC(=O)O[C@H]1[C@@H](O)C[C@H](O[C@H]2[C@@H](O)C[C@H](O[C@H]3[C@@H](O)C[C@H](O[C@H]4CC[C@@]5(C)[C@H](CC[C@@H]6[C@@H]5C[C@@H](O)[C@]5(C)[C@@H](C7=CC(=O)OC7)CC[C@]65O)C4)O[C@@H]3C)O[C@@H]2C)O[C@@H]1C` returned a lipophilicity (logP) of 2. For `O=C1C(O)N=C(c2ccccc2)c2cc([N+](=O)[O-])ccc2N1CCO` (stereo not given), the logP was 0.72. Compound `Cc1cc2c(ccc3c(C)c(C)c(=O)n(C)c32)o1` displayed a lipophilicity (logP) of 3.54. `O=c1ccc2ccc3occc3c2s1` displayed a logP of 2.58. In turn, `CC(C)NC(=S)NS(=O)(=O)c1cnccc1NC1CCCCCCC1` gave a lipophilicity (logP) of 4.2. In the case of `COc1cc2ncnc(Nc3cccc(Br)c3)c2cc1OC` it was 3.49; in that of `C=CC(=O)OCCCOC(=O)C=C`, 0.87; in that of `O=C1C=C(N2CC2)C(=O)C=C1N1CC1`, 0.18. In the case of `C=C1C(=O)OC2CC(C)C3C4CC(=O)C3(CC12)C1(C4)C(=O)OC2CC(C)C3C=CC(=O)C3(C)C(O)C21` (stereo not given) it was 1.66. The value for `O=C1C(O)N=C(c2ccccc2)c2cc(Cl)ccc2N1CCO` (stereo not given) was 1.53.

The compound `COCc1[nH]c(-c2ccc(OCC(O)CNCCc3ccc(OC)c(OC)c3)cc2)nc1C` (stereo not given) had a logP of 2.8. In the case of `Cc1c(O)c(=O)ccn1CCCOC(=O)c1ccc(O)cc1` it was 0.8. In the case of `CC(C)CCCNc1ncnc2c1ncn2C1OC(CO)C(O)C1O` (stereo not given) it was 2.07; in that of `Clc1cc(Cl)c(-c2cc(Cl)cc(Cl)c2Cl)c(Cl)c1`, 6.87. In the case of `CCOC(=O)C1=C(C)NC(C)=C(C(=O)OCC)C1c1cccc2c1OCO2` it was 4.32. Turning to `CC(C)CC(N)C(=O)NC(Cc1ccccc1)C(=O)O` (stereo not drawn) (H-Leu-Phe-OH; configuration not given here), the log partition coefficient (logP) is -1.15. For the compound `CCCc1nc(Nc2ccccc2OC)nc(N2CCOCC2)n1`, the logP was found to be 3.59. The value for `CCOP(=O)(OCC)C(C)(C)[N+]([O-])=Cc1cc[n+]([O-])cc1` was -0.74. The value for `CCCCCCCCNCCO` was 2.75. `COc1nc(N)nc(NC(C)(C)C)n1` had a lipophilicity (logP) of 1.93. In the case of `CC1CCCCC1NC(=O)N1C(=O)N(C)CC1O` (stereo not given) it was 2.2. In the case of `CCCN(CC)CC(=O)Nc1c(C)cccc1C` it was 2.74; in that of `O=C(O)CCCCON=C(c1cccc(C(F)(F)F)c1)c1cccnn1`, 2.8. The value for `CCC(C)C(N)C(=O)NC(C(=O)O)C(C)CC` (stereo not drawn) (H-Ile-Ile-OH; configuration not given here) was -1.82. Take `CCOP(=O)(OCC)C(C)(C)[N+]([O-])=Cc1cccnc1`: the logP was 0.41. The value for `Cc1cccc(C)c1CCc1cnc[nH]1` was 2.91; that for `CC(SSc1ncc[nH]1)c1ccccc1` (stereo not given) was 3.39; that for `CCOc1ccccc1CNc1[nH]cnc2ncnc1-2` was 2.72.

On to `CCc1c(C)nc2c3c(c(C(=O)N(C)C)cn12)CCC(c1ccccc1)O3` (stereo not given), for which the log partition coefficient (logP) came to 3.2. Consider `O=c1cc(CCl)oc(Cl)c1O`, for which the lipophilicity (logP) came to 0.95.

Turning to `Cc1cccc(C)c1/C=C/c1c[nH]cn1`, the log partition coefficient (logP) came to 3.35.

As for `COc1ccc(CCNCC(O)COc2ccc(-c3nc(CN4CCOCC4)c[nH]3)cc2)cc1OC` (stereo not given), the logP was 2.4. In the case of `Cc1cccc(N2CC(N3CCOCC3)=CC2=O)c1` it was 1.5; in that of `Cc1cn(C2C=CC(COP3(=O)OCc4ccccc4O3)O2)c(=O)[nH]c1=O` (stereo not given), 0.28; in that of `CCCC(=NOCC)C1=C(O)CC2(CCCC2)OC1=O`, 3.22. As to `CCCCNCC(C)O` (stereo not given), the logP was determined as 1.22. `COc1cc2c(c(OC)c1OC)-c1ccc(SC)c(=S)cc1C(NC(C)=O)CC2` (stereo not given) registered a log partition coefficient (logP) of 1.75.

`COC(=O)C(C)NP(=O)(OCC1C=CC(n2cc(C)c(=O)[nH]c2=O)O1)Oc1ccc(I)cc1` (stereo not given) yielded a lipophilicity (logP) of 1.93.

`Cc1c(C)c2cc3c(C)coc3c(C)c2oc1=O` gave a log partition coefficient (logP) of 3.62. In the case of `CCCNC(=O)N1C(=O)N(C)CC1O` (stereo not given) it was 0.99; in that of `CCCOCCCNc1[nH]cnc2ncnc1-2`, 1.74. The value for `CCC(CC)C(=O)NS(=O)(=O)c1ccc(C(F)(F)F)cc1[N+](=O)[O-]` was 3.57. In the case of `O=c1nc2[nH]nc(-c3ccccc3)cc-2c(=O)[nH]1` it was 1.56; in that of `NC(=O)c1cccc2nc(N)nc(N)c12`, -0.33.

For `CC(NC(=O)C(Cc1ccccc1)NC(=O)C(N)Cc1c[nH]c2ccccc12)C(=O)O` (stereo not drawn) (H-Trp-Phe-Ala-OH; configuration not given here), the logP is -1. In the case of `CCC(C)NCc1cccc(S(=O)(=O)c2csc(S(N)(=O)=O)c2)c1` (stereo not given), the logP was found to be 2.13. Compound `NC1=NCC(CN2CCN(c3ccccc3F)CC2)O1` (stereo not given) showed a log partition coefficient (logP) of 1.06.
